Laboratory results as given in patent publication US6358885B1, “Substituted phenylheterocyclic herbicides” (Mississippi State University, priority 1992, dated 2002).

Assays:
Test in all cases: Test F preemergence/postemergence greenhouse plant response rating 0 to 100
Conditions in all cases: 0 to 100 scale
[1] = test system: speedwell; format: in vivo, Veronica persica
Text: (§1) Compounds evaluated in this test were formulated in a non-phytoxic solvent and applied to the soil surface before plant seedlings emerged (preemergence application) and to plants that were in the one-to-four leaf stage (postemergence application). A sandy loam soil was used for the preemergence test while a mixture of sandy loam soil and greenhouse potting mix in a 60:40 ratio was used for the postemergence test. Test compounds were applied within approximately one day after planting seeds for the preemergence test. Plantings of these crops and weed species were adjusted to produce plants of appropriate size for the postemergence test. All plant species were grown using normal greenhouse practices. Crop and weed species include winter barley (Hordeum vulgare cv. ‘Igri’), blackgrass (Alopecurus myosuroides), chickweed (Stellaria media), downy brome (Bromus tectorum), field violet (Viola arvensis), galium (Galium aparine), green foxtail (Setaria viridis), kochia (Kochia scoparia), lambsquarters (Chenopodium album), speedwell (Veronica persica), rape (Brassica napus), ryegrass (Lolium multiflorum), sugar beet (Beta vulgaris cv. ‘USl’), sunflower (Helianthus annuus cv. ‘Russian Giant’), spring wheat (Triticum aestivum cv. ‘ERA’), winter wheat (Triticum aestivum cv. ‘Talent’), wild buckwheat (Polygonum convolvulus), wild mustard (Sinapis arvensis), wild oat (Avena fatua), and wild radish (Raphanus raphanistrum). Blackgrass, galium and wild oat were treated at two growth stages. […] Treated plants and untreated controls were maintained in a greenhouse for approximately 21 to 28 days, after which all treated plants were compared to untreated controls and visually evaluated. […] A dash response (-) means no test result.

[2] = test system: sugar beet; format: in vivo, Beta vulgaris cv. ‘USl’
Text: as §1

[3] = test system: green foxtail; format: in vivo, Setaria viridis
Text: as §1

[4] = test system: wild buckwheat; format: in vivo, Polygonum convolvulus
Text: as §1

[5] = test system: blackgrass; format: in vivo, Alopecurus myosuroides
Text: as §1

[6] = test system: rape; format: in vivo, Brassica napus
Text: as §1

C#CCOc1cc(-c2nn3c(c2Br)CCCC3)c(F)cc1Cl [Compound 26] was tested, and the “Persn Speedwell plant response rating” value ([1]; POSTEMERGENCE, Rate 4 g/ha) was 60, the “Persn Speedwell plant response rating” value ([1]; POSTEMERGENCE, Rate 8 g/ha) was 60 and the “Persn Speedwell plant response rating” value ([1]; POSTEMERGENCE, Rate 32 g/ha) was 100. For the same molecule, the “Persn Speedwell plant response rating” value ([1]; POSTEMERGENCE, Rate 64 g/ha) was 100, the “Persn Speedwell plant response rating” value ([1]; POSTEMERGENCE, Rate 125 g/ha) was 100 and the “Persn Speedwell plant response rating” value ([1]; POSTEMERGENCE, Rate 250 g/ha) was 100. For the same molecule, the “Persn Speedwell plant response rating” value ([1]; PREEMERGENCE, Rate 4 g/ha) was 50, the “Persn Speedwell plant response rating” value ([1]; PREEMERGENCE, Rate 8 g/ha) was 80 and the “Persn Speedwell plant response rating” value ([1]; PREEMERGENCE, Rate 16 g/ha) was 100. The “Persn Speedwell plant response rating” value ([1]; PREEMERGENCE, Rate 32 g/ha) was 100, the “Persn Speedwell plant response rating” value ([1]; PREEMERGENCE, Rate 64 g/ha) was 100 and the “Persn Speedwell plant response rating” value ([1]; PREEMERGENCE, Rate 125 g/ha) was 100. For the same molecule, the “Persn Speedwell plant response rating” value ([1]; PREEMERGENCE, Rate 250 g/ha) was 100, the “Sugar beet plant response rating” value ([2]; POSTEMERGENCE, Rate 4 g/ha) was 100 and the “Sugar beet plant response rating” value ([2]; POSTEMERGENCE, Rate 8 g/ha) was 100. For the same molecule, the “Sugar beet plant response rating” value ([2]; POSTEMERGENCE, Rate 16 g/ha) was 100, the “Sugar beet plant response rating” value ([2]; POSTEMERGENCE, Rate 32 g/ha) was 100 and the “Sugar beet plant response rating” value ([2]; POSTEMERGENCE, Rate 64 g/ha) was 100. The “Sugar beet plant response rating” value ([2]; POSTEMERGENCE, Rate 125 g/ha) was 100, the “Sugar beet plant response rating” value ([2]; POSTEMERGENCE, Rate 250 g/ha) was 100 and the “Sugar beet plant response rating” value ([2]; PREEMERGENCE, Rate 4 g/ha) was 0. The “Sugar beet plant response rating” value ([2]; PREEMERGENCE, Rate 8 g/ha) was 50, the “Sugar beet plant response rating” value ([2]; PREEMERGENCE, Rate 16 g/ha) was 60 and the “Sugar beet plant response rating” value ([2]; PREEMERGENCE, Rate 32 g/ha) was 70. For the same molecule, the “Sugar beet plant response rating” value ([2]; PREEMERGENCE, Rate 64 g/ha) was 100, the “Sugar beet plant response rating” value ([2]; PREEMERGENCE, Rate 125 g/ha) was 100 and the “Sugar beet plant response rating” value ([2]; PREEMERGENCE, Rate 250 g/ha) was 100. For the same molecule, the “Green foxtail plant response rating” value ([3]; POSTEMERGENCE, Rate 4 g/ha) was 0, the “Green foxtail plant response rating” value ([3]; POSTEMERGENCE, Rate 8 g/ha) was 0 and the “Green foxtail plant response rating” value ([3]; POSTEMERGENCE, Rate 16 g/ha) was 50. For the same molecule, the “Green foxtail plant response rating” value ([3]; POSTEMERGENCE, Rate 32 g/ha) was 60, the “Green foxtail plant response rating” value ([3]; POSTEMERGENCE, Rate 64 g/ha) was 70 and the “Green foxtail plant response rating” value ([3]; POSTEMERGENCE, Rate 125 g/ha) was 80. The “Green foxtail plant response rating” value ([3]; POSTEMERGENCE, Rate 250 g/ha) was 50, the “Green foxtail plant response rating” value ([3]; PREEMERGENCE, Rate 4 g/ha) was 0 and the “Green foxtail plant response rating” value ([3]; PREEMERGENCE, Rate 8 g/ha) was 0. The “Green foxtail plant response rating” value ([3]; PREEMERGENCE, Rate 16 g/ha) was 20, the “Green foxtail plant response rating” value ([3]; PREEMERGENCE, Rate 32 g/ha) was 50 and the “Green foxtail plant response rating” value ([3]; PREEMERGENCE, Rate 64 g/ha) was 100. For the same molecule, the “Green foxtail plant response rating” value ([3]; PREEMERGENCE, Rate 125 g/ha) was 100, the “Green foxtail plant response rating” value ([3]; PREEMERGENCE, Rate 250 g/ha) was 100 and the “Wild buckwheat plant response rating” value ([4]; POSTEMERGENCE, Rate 4 g/ha) was 100. The “Wild buckwheat plant response rating” value ([4]; POSTEMERGENCE, Rate 8 g/ha) was 100, the “Wild buckwheat plant response rating” value ([4]; POSTEMERGENCE, Rate 16 g/ha) was 100 and the “Wild buckwheat plant response rating” value ([4]; POSTEMERGENCE, Rate 32 g/ha) was 100. For the same molecule, the “Wild buckwheat plant response rating” value ([4]; POSTEMERGENCE, Rate 64 g/ha) was 100, the “Wild buckwheat plant response rating” value ([4]; POSTEMERGENCE, Rate 125 g/ha) was 100 and the “Wild buckwheat plant response rating” value ([4]; POSTEMERGENCE, Rate 250 g/ha) was 100. For the same molecule, the “Wild buckwheat plant response rating” value ([4]; PREEMERGENCE, Rate 4 g/ha) was 0, the “Wild buckwheat plant response rating” value ([4]; PREEMERGENCE, Rate 8 g/ha) was 0 and the “Wild buckwheat plant response rating” value ([4]; PREEMERGENCE, Rate 16 g/ha) was 30. The “Wild buckwheat plant response rating” value ([4]; PREEMERGENCE, Rate 32 g/ha) was 100, the “Wild buckwheat plant response rating” value ([4]; PREEMERGENCE, Rate 64 g/ha) was 100 and the “Wild buckwheat plant response rating” value ([4]; PREEMERGENCE, Rate 125 g/ha) was 100. The “Wild buckwheat plant response rating” value ([4]; PREEMERGENCE, Rate 250 g/ha) was 100, the “Blackgrass (1) plant response rating” value ([5]; POSTEMERGENCE, Rate 4 g/ha, stage (1) two to three leaves) was 0 and the “Blackgrass (2) plant response rating” value ([5]; POSTEMERGENCE, Rate 4 g/ha, stage (2) approximately four leaves or initial tillering) was 0. The “Blackgrass (1) plant response rating” value ([5]; POSTEMERGENCE, Rate 8 g/ha, stage (1) two to three leaves) was 0, the “Blackgrass (2) plant response rating” value ([5]; POSTEMERGENCE, Rate 8 g/ha, stage (2) approximately four leaves or initial tillering) was 0 and the “Blackgrass (1) plant response rating” value ([5]; POSTEMERGENCE, Rate 16 g/ha, stage (1) two to three leaves) was 0. For the same molecule, the “Blackgrass (2) plant response rating” value ([5]; POSTEMERGENCE, Rate 16 g/ha, stage (2) approximately four leaves or initial tillering) was 0, the “Blackgrass (1) plant response rating” value ([5]; POSTEMERGENCE, Rate 32 g/ha, stage (1) two to three leaves) was 0 and the “Blackgrass (2) plant response rating” value ([5]; POSTEMERGENCE, Rate 32 g/ha, stage (2) approximately four leaves or initial tillering) was 0. For the same molecule, the “Blackgrass (1) plant response rating” value ([5]; POSTEMERGENCE, Rate 64 g/ha, stage (1) two to three leaves) was 0, the “Blackgrass (2) plant response rating” value ([5]; POSTEMERGENCE, Rate 64 g/ha, stage (2) approximately four leaves or initial tillering) was 10 and the “Blackgrass (1) plant response rating” value ([5]; POSTEMERGENCE, Rate 125 g/ha, stage (1) two to three leaves) was 10. The “Blackgrass (2) plant response rating” value ([5]; POSTEMERGENCE, Rate 125 g/ha, stage (2) approximately four leaves or initial tillering) was 10, the “Blackgrass (1) plant response rating” value ([5]; POSTEMERGENCE, Rate 250 g/ha, stage (1) two to three leaves) was 30 and the “Blackgrass (2) plant response rating” value ([5]; POSTEMERGENCE, Rate 250 g/ha, stage (2) approximately four leaves or initial tillering) was 15. The “Blackgrass (1) plant response rating” value ([5]; PREEMERGENCE, Rate 4 g/ha, Blackgrass (1)) was 0, the “Blackgrass (2) plant response rating” value ([5]; PREEMERGENCE, Rate 4 g/ha, Blackgrass (2)) was 0 and the “Blackgrass (1) plant response rating” value ([5]; PREEMERGENCE, Rate 8 g/ha, Blackgrass (1)) was 0. The “Blackgrass (2) plant response rating” value ([5]; PREEMERGENCE, Rate 8 g/ha, Blackgrass (2)) was 0, the “Blackgrass (1) plant response rating” value ([5]; PREEMERGENCE, Rate 16 g/ha, Blackgrass (1)) was 0 and the “Blackgrass (2) plant response rating” value ([5]; PREEMERGENCE, Rate 16 g/ha, Blackgrass (2)) was 0. The “Blackgrass (1) plant response rating” value ([5]; PREEMERGENCE, Rate 32 g/ha, Blackgrass (1)) was 0, the “Blackgrass (2) plant response rating” value ([5]; PREEMERGENCE, Rate 32 g/ha, Blackgrass (2)) was 0 and the “Blackgrass (1) plant response rating” value ([5]; PREEMERGENCE, Rate 64 g/ha, Blackgrass (1)) was 0. The “Blackgrass (2) plant response rating” value ([5]; PREEMERGENCE, Rate 64 g/ha, Blackgrass (2)) was 0, the “Blackgrass (1) plant response rating” value ([5]; PREEMERGENCE, Rate 125 g/ha, Blackgrass (1)) was 20 and the “Blackgrass (2) plant response rating” value ([5]; PREEMERGENCE, Rate 125 g/ha, Blackgrass (2)) was 40. The “Blackgrass (1) plant response rating” value ([5]; PREEMERGENCE, Rate 250 g/ha, Blackgrass (1)) was 40, the “Blackgrass (2) plant response rating” value ([5]; PREEMERGENCE, Rate 250 g/ha, Blackgrass (2)) was 40 and the “Rape plant response rating” value ([6]; POSTEMERGENCE, Rate 4 g/ha) was 0. For the same molecule, the “Rape plant response rating” value ([6]; POSTEMERGENCE, Rate 8 g/ha) was 0, the “Rape plant response rating” value ([6]; POSTEMERGENCE, Rate 16 g/ha) was 50 and the “Rape plant response rating” value ([6]; POSTEMERGENCE, Rate 32 g/ha) was 100. For the same molecule, the “Rape plant response rating” value ([6]; POSTEMERGENCE, Rate 64 g/ha) was 100, the “Rape plant response rating” value ([6]; POSTEMERGENCE, Rate 125 g/ha) was 100 and the “Rape plant response rating” value ([6]; POSTEMERGENCE, Rate 250 g/ha) was 100. For the same molecule, the “Rape plant response rating” value ([6]; PREEMERGENCE, Rate 4 g/ha) was 0, the “Rape plant response rating” value ([6]; PREEMERGENCE, Rate 8 g/ha) was 0 and the “Rape plant response rating” value ([6]; PREEMERGENCE, Rate 16 g/ha) was 0. For the same molecule, the “Rape plant response rating” value ([6]; PREEMERGENCE, Rate 32 g/ha) was 20, the “Rape plant response rating” value ([6]; PREEMERGENCE, Rate 64 g/ha) was 60 and the “Rape plant response rating” value ([6]; PREEMERGENCE, Rate 125 g/ha) was 80. The “Rape plant response rating” value ([6]; PREEMERGENCE, Rate 250 g/ha) was 100.
